Laboratory results: US10844077B2, “Thiazolyl-containing compounds for treating proliferative diseases” (Dana-Farber Cancer Institute, Inc., priority 2014, dated 2020)
Where “and” joins values, the source holds several entries; their conditions need not be identical. Identical values can stand only once.

Tests used:
Experiment in all cases: KINATIV assay
Format in all cases: cell-based
ACK = ACK (Homo sapiens (Human), UniProt Q07912); details: 1 μM, 90 minutes, BCWM.1 cells
Method in brief: (§1)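 Harvest, lyse, probe: lysates take up an ATP-biotin probe directly, and ACTIVX identifies and quantifies the kinases bound.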

AKT1 = AKT1 (Homo sapiens (Human), UniProt P31749); details: 1 μM, 90 minutes, BCWM.1 cells
Method in brief: as §1

BLK = BLK (Homo sapiens (Human), UniProt P51451); details: 1 μM, 90 minutes, BCWM.1 cells
Method in brief: as §1

BTK = BTK (Homo sapiens (Human), UniProt Q06187); details: 1 μM, 90 minutes, BCWM.1 cells
Method in brief: as §1

CK2a2 = CK2a2 (Homo sapiens (Human), UniProt P19784); details: 1 μM, 90 minutes, BCWM.1 cells
Method in brief: as §1

CLK3 = CLK3 (Homo sapiens (Human), UniProt P49761); details: 1 μM, 90 minutes, BCWM.1 cells
Method in brief: as §1

CSK = CSK (Homo sapiens (Human), UniProt P41240); details: 1 μM, 90 minutes, BCWM.1 cells
Sequence of CSK (P41240 whole entry): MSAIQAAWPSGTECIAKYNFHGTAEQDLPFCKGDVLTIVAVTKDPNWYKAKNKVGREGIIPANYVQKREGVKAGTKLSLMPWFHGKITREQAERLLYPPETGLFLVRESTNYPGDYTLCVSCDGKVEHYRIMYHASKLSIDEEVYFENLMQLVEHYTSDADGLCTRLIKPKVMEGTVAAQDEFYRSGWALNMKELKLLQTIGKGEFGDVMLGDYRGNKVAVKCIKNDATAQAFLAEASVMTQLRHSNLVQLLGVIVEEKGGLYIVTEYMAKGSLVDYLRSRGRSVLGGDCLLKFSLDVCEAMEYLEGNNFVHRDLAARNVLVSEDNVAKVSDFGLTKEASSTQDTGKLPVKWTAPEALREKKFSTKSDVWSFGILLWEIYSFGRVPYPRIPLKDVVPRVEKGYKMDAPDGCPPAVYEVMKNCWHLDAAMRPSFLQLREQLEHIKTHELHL
Method in brief: as §1

CaMK1d = CaMK1d (Homo sapiens (Human), UniProt Q8IU85); details: 1 μM, 90 minutes, BCWM.1 cells
Sequence of CaMK1d (Q8IU85 whole entry): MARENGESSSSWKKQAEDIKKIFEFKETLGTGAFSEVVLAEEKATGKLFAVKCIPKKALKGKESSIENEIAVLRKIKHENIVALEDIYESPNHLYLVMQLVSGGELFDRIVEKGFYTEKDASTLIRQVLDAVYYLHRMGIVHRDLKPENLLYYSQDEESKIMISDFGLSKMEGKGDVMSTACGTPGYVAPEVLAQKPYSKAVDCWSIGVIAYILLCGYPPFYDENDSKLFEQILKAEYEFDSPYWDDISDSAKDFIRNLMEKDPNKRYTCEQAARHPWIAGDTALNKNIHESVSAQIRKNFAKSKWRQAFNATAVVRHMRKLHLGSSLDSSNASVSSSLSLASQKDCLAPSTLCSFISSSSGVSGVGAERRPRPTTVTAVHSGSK
Method in brief: as §1

CaMK2g = CaMK2g (Homo sapiens (Human), UniProt Q13555); details: 1 μM, 90 minutes, BCWM.1 cells
Method in brief: as §1

FGR = FGR (Homo sapiens (Human), UniProt P09769); details: 1 μM, 90 minutes, BCWM.1 cells
Method in brief: as §1

GSK3A = GSK3A (Homo sapiens (Human), UniProt P49840); details: 1 μM, 90 minutes, BCWM.1 cells
Method in brief: as §1

GSK3B = GSK3B (Homo sapiens (Human), UniProt P49841); details: GSK3B; 1 μM, 90 minutes, BCWM.1 cells
Method in brief: as §1

JAK1 = JAK1 (Homo sapiens (Human), UniProt P23458); details: 1 μM, 90 minutes, BCWM.1 cells
Method in brief: as §1

LATS2 = LATS2 (Homo sapiens (Human), UniProt Q9NRM7); details: 1 μM, 90 minutes, BCWM.1 cells
Method in brief: as §1

LRRK2 = LRRK2 (Homo sapiens (Human), UniProt Q5S007); details: 1 μM, 90 minutes, BCWM.1 cells
Method in brief: as §1

LYN = LYN (Homo sapiens (Human), UniProt P07948); details: 1 μM, 90 minutes, BCWM.1 cells
Sequence of LYN (P07948 whole entry): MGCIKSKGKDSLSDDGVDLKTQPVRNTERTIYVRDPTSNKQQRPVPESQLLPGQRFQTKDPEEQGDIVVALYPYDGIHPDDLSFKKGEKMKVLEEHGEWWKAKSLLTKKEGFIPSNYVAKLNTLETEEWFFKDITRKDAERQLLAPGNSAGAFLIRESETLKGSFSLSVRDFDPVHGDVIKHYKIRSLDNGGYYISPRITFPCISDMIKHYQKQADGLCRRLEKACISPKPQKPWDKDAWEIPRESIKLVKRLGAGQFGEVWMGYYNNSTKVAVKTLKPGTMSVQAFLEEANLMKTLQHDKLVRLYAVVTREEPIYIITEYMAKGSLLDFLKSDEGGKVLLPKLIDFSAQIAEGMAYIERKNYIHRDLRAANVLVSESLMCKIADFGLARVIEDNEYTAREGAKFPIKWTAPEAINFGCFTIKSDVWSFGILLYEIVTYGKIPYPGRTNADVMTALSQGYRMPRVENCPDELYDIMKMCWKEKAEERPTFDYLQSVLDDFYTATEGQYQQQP
Method in brief: as §1

MAP3K1 = MAP3K1 (Homo sapiens (Human), UniProt Q13233); details: 1 μM, 90 minutes, BCWM.1 cells
Method in brief: as §1

MAP3K15, MAP3K5, MAP3K6 = details: 1 μM, 90 minutes, BCWM.1 cells
Method in brief: as §1

MARK2, MARK3 = details: 1 μM, 90 minutes, BCWM.1 cells
Method in brief: as §1

MARK3 = MARK3 (Homo sapiens (Human), UniProt P27448); details: 1 μM, 90 minutes, BCWM.1 cells
Method in brief: as §1

MAST1, MAST2 = details: 1 μM, 90 minutes, BCWM.1 cells
Method in brief: as §1

MST4 = MST4 (Homo sapiens (Human), UniProt Q9P289); details: 1 μM, 90 minutes, BCWM.1 cells
Method in brief: as §1

MST4, YSK1 = details: 1 μM, 90 minutes, BCWM.1 cells
Method in brief: as §1

NEK1 = NEK1 (Homo sapiens (Human), UniProt Q96PY6); details: 1 μM, 90 minutes, BCWM.1 cells
Method in brief: as §1

NEK6, NEK7 = details: 1 μM, 90 minutes, BCWM.1 cells
Method in brief: as §1

NEK8 = NEK8 (Homo sapiens (Human), UniProt Q86SG6); details: 1 μM, 90 minutes, BCWM.1 cells
Method in brief: as §1

NEK9 = NEK9 (Homo sapiens (Human), UniProt Q8TD19); details: 1 μM, 90 minutes, BCWM.1 cells
Sequence of NEK9 (Q8TD19 whole entry): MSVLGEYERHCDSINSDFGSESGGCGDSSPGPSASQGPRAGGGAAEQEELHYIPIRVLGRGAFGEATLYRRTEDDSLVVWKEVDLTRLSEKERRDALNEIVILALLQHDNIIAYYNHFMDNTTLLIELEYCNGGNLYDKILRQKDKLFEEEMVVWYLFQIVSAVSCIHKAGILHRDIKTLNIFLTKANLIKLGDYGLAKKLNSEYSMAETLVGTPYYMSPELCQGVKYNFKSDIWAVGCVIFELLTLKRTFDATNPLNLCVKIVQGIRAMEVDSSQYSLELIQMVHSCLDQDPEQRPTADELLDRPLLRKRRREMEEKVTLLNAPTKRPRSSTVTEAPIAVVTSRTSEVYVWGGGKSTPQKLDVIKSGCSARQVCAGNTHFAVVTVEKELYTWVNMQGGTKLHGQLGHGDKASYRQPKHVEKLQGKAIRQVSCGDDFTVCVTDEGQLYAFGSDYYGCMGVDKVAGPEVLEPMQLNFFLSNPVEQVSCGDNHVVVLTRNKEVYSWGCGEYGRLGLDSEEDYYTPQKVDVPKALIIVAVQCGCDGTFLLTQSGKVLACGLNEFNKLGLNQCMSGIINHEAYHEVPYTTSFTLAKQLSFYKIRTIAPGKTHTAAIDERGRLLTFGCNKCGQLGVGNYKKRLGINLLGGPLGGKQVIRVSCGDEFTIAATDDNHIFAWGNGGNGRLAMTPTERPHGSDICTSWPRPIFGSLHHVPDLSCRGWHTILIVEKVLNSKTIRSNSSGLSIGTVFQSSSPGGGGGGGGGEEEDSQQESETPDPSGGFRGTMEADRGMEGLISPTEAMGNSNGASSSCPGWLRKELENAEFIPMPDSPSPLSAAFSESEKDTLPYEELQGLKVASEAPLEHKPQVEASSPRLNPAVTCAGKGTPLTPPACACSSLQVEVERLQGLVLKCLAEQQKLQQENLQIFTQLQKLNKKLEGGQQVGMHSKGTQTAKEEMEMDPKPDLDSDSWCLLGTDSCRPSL
Method in brief: as §1

PEK = PEK (Homo sapiens (Human), UniProt Q9NZJ5); details: 1 μM, 90 minutes, BCWM.1 cells
Method in brief: as §1

PI4KB = PI4KB (Homo sapiens (Human), UniProt Q9UBF8); details: 1 μM, 90 minutes, BCWM.1 cells
Sequence of PI4KB (Q9UBF8 whole entry): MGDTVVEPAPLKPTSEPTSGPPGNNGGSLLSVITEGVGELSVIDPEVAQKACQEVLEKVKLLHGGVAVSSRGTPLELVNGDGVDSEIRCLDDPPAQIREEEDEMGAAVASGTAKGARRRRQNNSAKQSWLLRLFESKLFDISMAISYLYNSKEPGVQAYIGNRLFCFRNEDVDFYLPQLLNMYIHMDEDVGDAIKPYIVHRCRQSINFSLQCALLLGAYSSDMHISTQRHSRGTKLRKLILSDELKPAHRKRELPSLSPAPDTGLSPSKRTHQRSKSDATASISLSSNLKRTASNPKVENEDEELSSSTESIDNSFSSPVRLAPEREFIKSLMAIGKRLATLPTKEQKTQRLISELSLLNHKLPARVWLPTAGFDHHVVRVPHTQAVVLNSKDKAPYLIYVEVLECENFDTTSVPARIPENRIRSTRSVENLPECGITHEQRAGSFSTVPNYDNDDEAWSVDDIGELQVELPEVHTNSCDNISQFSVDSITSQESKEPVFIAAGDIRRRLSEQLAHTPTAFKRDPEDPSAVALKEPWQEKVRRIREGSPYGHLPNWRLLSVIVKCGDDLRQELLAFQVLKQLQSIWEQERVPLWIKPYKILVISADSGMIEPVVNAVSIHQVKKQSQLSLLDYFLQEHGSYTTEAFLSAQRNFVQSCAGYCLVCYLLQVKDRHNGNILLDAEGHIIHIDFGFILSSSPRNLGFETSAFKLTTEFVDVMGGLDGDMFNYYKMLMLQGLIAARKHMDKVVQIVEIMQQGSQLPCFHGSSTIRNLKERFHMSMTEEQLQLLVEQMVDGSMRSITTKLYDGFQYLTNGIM
Method in brief: as §1

PIK3C2B = PIK3C2B (Homo sapiens (Human), UniProt O00750); details: 1 μM, 90 minutes, BCWM.1 cells
Method in brief: as §1

PKD1, PKD2 = details: 1 μM, 90 minutes, BCWM.1 cells
Method in brief: as §1

PKD2 = PKD2 (Homo sapiens (Human), UniProt Q9BZL6); details: 1 μM, 90 minutes, BCWM.1 cells
Method in brief: as §1

ROCK1 = ROCK1 (Homo sapiens (Human), UniProt Q13464); details: 1 μM, 90 minutes, BCWM.1 cells
Method in brief: as §1

RSK2 domain2 = RSK2 domain2 (Homo sapiens (Human), UniProt P51812); details: 1 μM, 90 minutes, BCWM.1 cells
Method in brief: as §1

SNRK = SNRK (Homo sapiens (Human), UniProt Q9NRH2); details: 1 μM, 90 minutes, BCWM.1 cells
Sequence of SNRK (Q9NRH2 whole entry): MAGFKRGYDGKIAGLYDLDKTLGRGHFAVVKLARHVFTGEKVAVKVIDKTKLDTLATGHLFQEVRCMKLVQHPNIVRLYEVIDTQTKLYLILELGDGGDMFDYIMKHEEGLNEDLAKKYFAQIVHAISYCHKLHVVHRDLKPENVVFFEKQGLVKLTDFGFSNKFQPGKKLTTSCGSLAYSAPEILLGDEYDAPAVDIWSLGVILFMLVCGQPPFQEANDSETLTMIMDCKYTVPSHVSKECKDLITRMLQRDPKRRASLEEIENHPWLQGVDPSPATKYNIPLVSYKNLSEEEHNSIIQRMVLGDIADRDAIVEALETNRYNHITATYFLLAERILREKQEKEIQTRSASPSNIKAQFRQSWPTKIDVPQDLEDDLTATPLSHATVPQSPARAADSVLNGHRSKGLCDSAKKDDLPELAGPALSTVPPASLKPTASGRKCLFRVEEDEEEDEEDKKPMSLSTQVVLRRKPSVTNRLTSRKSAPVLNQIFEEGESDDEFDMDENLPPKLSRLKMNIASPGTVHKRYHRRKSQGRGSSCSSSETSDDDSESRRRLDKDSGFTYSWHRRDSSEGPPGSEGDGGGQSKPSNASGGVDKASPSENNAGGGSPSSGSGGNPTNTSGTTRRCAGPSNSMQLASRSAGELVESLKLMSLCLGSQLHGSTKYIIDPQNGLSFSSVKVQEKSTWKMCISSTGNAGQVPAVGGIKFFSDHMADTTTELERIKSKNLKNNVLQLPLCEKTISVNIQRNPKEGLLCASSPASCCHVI
Method in brief: as §1

SRPK1 = SRPK1 (Homo sapiens (Human), UniProt Q96SB4); details: 1 μM, 90 minutes, BCWM.1 cells
Method in brief: as §1

STK33 = STK33 (Homo sapiens (Human), UniProt Q9BYT3); details: 1 μM, 90 minutes, BCWM.1 cells
Method in brief: as §1

STLK6 = STLK6 (Homo sapiens (Human), UniProt Q9C0K7); details: 1 μM, 90 minutes, BCWM.1 cells
Method in brief: as §1

TYK2 domain2 = TYK2 domain2 (Homo sapiens (Human), UniProt P29597); details: 1 μM, 90 minutes, BCWM.1 cells
Method in brief: as §1

[1] = system: ZC1/HGK, ZC2/TNIK, ZC3/MINK; details: 1 μM, 90 minutes, BCWM.1 cells
Method in brief: as §1

p70S6K = p70S6K (Homo sapiens (Human), UniProt P23443); details: 1 μM, 90 minutes, BCWM.1 cells
Method in brief: as §1

Sequence of ACK (Q07912 whole entry): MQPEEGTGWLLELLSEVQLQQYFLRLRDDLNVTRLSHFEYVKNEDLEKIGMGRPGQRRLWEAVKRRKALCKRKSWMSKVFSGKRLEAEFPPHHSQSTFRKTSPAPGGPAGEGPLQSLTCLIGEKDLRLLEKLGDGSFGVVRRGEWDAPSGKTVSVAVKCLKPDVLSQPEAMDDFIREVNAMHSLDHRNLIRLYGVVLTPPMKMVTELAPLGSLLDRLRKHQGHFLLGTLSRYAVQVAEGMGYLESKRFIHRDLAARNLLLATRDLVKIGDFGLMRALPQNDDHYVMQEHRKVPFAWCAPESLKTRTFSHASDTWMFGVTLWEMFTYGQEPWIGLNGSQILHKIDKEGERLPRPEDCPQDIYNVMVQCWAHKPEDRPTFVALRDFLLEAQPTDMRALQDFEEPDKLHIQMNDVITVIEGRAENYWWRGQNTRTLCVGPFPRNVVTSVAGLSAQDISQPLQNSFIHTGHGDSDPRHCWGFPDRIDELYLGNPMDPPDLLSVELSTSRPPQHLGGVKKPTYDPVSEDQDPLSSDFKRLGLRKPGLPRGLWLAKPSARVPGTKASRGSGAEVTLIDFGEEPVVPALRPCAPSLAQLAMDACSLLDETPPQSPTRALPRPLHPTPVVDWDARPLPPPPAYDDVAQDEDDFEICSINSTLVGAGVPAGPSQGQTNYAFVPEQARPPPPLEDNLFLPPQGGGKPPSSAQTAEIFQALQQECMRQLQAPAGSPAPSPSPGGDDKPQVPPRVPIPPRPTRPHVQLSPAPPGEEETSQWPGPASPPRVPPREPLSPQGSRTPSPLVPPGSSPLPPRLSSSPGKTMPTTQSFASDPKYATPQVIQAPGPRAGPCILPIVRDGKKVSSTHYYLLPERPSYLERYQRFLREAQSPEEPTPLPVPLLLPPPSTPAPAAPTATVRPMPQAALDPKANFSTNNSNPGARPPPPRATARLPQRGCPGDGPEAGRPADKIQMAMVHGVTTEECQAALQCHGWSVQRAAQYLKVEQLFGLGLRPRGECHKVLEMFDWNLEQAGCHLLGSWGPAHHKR

## C=CC(=O)N1CCCCC(Nc2nccc(Nc3ncc(C(=O)Nc4c(C)cccc4C)s3)n2)C1 (stereo not shown) [Example I-7]
ACK
  % change of MS signal compared to control sample: 80.7% and 88.5%
AKT1
  % change of MS signal compared to control sample: −16.4%
BLK
  % change of MS signal compared to control sample: >95%
BTK
  % change of MS signal compared to control sample: 98.9% and >90%
CK2a2
  % change of MS signal compared to control sample: −6.4%
CLK3
  % change of MS signal compared to control sample: −15.7%
CSK
  % change of MS signal compared to control sample: 76.5% and 75.7%
CaMK1d
  % change of MS signal compared to control sample: −19.1% and −16.0%
CaMK2g
  % change of MS signal compared to control sample: −12.8%
FGR
  % change of MS signal compared to control sample: 94.7%
GSK3A
  % change of MS signal compared to control sample: −11.3%
GSK3B
  % change of MS signal compared to control sample: −1.9%
JAK1
  % change of MS signal compared to control sample: 7.5%
LATS2
  % change of MS signal compared to control sample: −6.6%
LRRK2
  % change of MS signal compared to control sample: −9.6%
LYN
  % change of MS signal compared to control sample: >97% and >90%
MAP3K1
  % change of MS signal compared to control sample: 7.9%
MAP3K15, MAP3K5, MAP3K6
  % change of MS signal compared to control sample: 4.0%
MARK2, MARK3
  % change of MS signal compared to control sample: −11.0%
MARK3
  % change of MS signal compared to control sample: 12.7%
MAST1, MAST2
  % change of MS signal compared to control sample: −35.0%
MST4
  % change of MS signal compared to control sample: 11.6%
MST4, YSK1
  % change of MS signal compared to control sample: 12.7%
NEK1
  % change of MS signal compared to control sample: 11.4%
NEK6, NEK7
  % change of MS signal compared to control sample: −8.4%
NEK8
  % change of MS signal compared to control sample: 12.2%
NEK9
  % change of MS signal compared to control sample: 2.5% and 1.1%
PEK
  % change of MS signal compared to control sample: 2.6%
PI4KB
  % change of MS signal compared to control sample: 36.0% and 35.3%
PIK3C2B
  % change of MS signal compared to control sample: 39.9%
PKD1, PKD2
  % change of MS signal compared to control sample: −8.3%
PKD2
  % change of MS signal compared to control sample: 10.0%
ROCK1
  % change of MS signal compared to control sample: 6.6%
RSK2 domain2
  % change of MS signal compared to control sample: −0.3%
SNRK
  % change of MS signal compared to control sample: 40.7% and 58.7%
SRPK1
  % change of MS signal compared to control sample: 1.2%
STK33
  % change of MS signal compared to control sample: 21.1%
STLK6
  % change of MS signal compared to control sample: −16.3%
TYK2 domain2
  % change of MS signal compared to control sample: −46.4%
[1]
  % change of MS signal compared to control sample: 6.2%
p70S6K
  % change of MS signal compared to control sample: −70.1%

## C=CC(=O)N1CCC(Cn2ccc(Nc3ncc(C(=O)Nc4c(C)cccc4Cl)s3)n2)C1 (stereo not shown) [II-1]
ACK
  % change of MS signal compared to control sample: 51.7% and 50.8%
AKT1
  % change of MS signal compared to control sample: −17.8%
BLK
  % change of MS signal compared to control sample: >95%
BTK
  % change of MS signal compared to control sample: 97.1% and >90%
CK2a2
  % change of MS signal compared to control sample: 13.8%
CLK3
  % change of MS signal compared to control sample: −22.6%
CSK
  % change of MS signal compared to control sample: 26.2% and 32.5%
CaMK1d
  % change of MS signal compared to control sample: −7.9% and −2.8%
CaMK2g
  % change of MS signal compared to control sample: −17.5%
FGR
  % change of MS signal compared to control sample: 87.8%
GSK3A
  % change of MS signal compared to control sample: −11.8%
GSK3B
  % change of MS signal compared to control sample: −5.1%
JAK1
  % change of MS signal compared to control sample: 5.4%
LATS2
  % change of MS signal compared to control sample: −2.9%
LRRK2
  % change of MS signal compared to control sample: −20.9%
LYN
  % change of MS signal compared to control sample: 88.1% and >90%
MAP3K1
  % change of MS signal compared to control sample: −1.2%
MAP3K15, MAP3K5, MAP3K6
  % change of MS signal compared to control sample: 7.5%
MARK2, MARK3
  % change of MS signal compared to control sample: −10.1%
MARK3
  % change of MS signal compared to control sample: 18.4%
MAST1, MAST2
  % change of MS signal compared to control sample: −81.3%
MST4
  % change of MS signal compared to control sample: 21.1%
MST4, YSK1
  % change of MS signal compared to control sample: 9.2%
NEK1
  % change of MS signal compared to control sample: 14.9%
NEK6, NEK7
  % change of MS signal compared to control sample: −0.2%
NEK8
  % change of MS signal compared to control sample: 6.5%
NEK9
  % change of MS signal compared to control sample: −1.0% and −0.1%
PEK
  % change of MS signal compared to control sample: −31.0%
PI4KB
  % change of MS signal compared to control sample: 7.2% and 13.7%
PIK3C2B
  % change of MS signal compared to control sample: −5.8%
PKD1, PKD2
  % change of MS signal compared to control sample: −19.8%
PKD2
  % change of MS signal compared to control sample: 12.7%
ROCK1
  % change of MS signal compared to control sample: 12.8%
RSK2 domain2
  % change of MS signal compared to control sample: 9.7%
SNRK
  % change of MS signal compared to control sample: 47.8% and 59.8%
SRPK1
  % change of MS signal compared to control sample: −4.7%
STK33
  % change of MS signal compared to control sample: 11.0%
STLK6
  % change of MS signal compared to control sample: −0.8%
TYK2 domain2
  % change of MS signal compared to control sample: −19.0%
[1]
  % change of MS signal compared to control sample: 4.2%
p70S6K
  % change of MS signal compared to control sample: −65.4%
